Values quoted from earlier work in patent US20190282513A1, “COMPOUND FOR USE IN RELIEF OF PAIN AND METHOD TO PRODUCE THEREOF” (priority 2018, published 2019).

Assays:
[1] = compared with ibuprofen
[2] = taken orally

Row | Compound | anti-inflammatory properties [1] | anti-inflammatory analgesic effect in cancer-related pain | treatment of chronic pain [2]
1 | C/C=C(/C=O)[C@@H](CC=O)CC(=O)OCCc1ccc(O)cc1 [oleocanthal] | anti-inflammatory properties similar to ibuprofen | – | –
2 | C=C(C)[C@@H]1CCC(C)=C[C@H]1c1c(O)cc(CCCCC)cc1O [CBD, cannabidiol] | – | effective anti-inflammatory analgesic | effectively treated chronic pain
